Measurements as given in paper PMC2610419 (Chemical biology & drug design, 2006).
Substitutions are numbered along the chain they refer to. “Also recorded” adds a separate entry of the source. Square brackets hold non-standard residues; d marks the D form. Ends that are not written are not given here. pS = N[C@@H](COP(=O)(O)O)C(=O)O

Tests used:
Design in all cases: species or system murine
[1] = target: T1, Abl SH2 domain Arg45Gln (Mus musculus, UniProt P00520, R161Q); assay: HSQC NMR titration ligand-binding assay, Arg45Gln mutant; conditions: read-out: Affinity in high salt, 135 mM KCl
T1 sequence (P00520 120-220 R161Q): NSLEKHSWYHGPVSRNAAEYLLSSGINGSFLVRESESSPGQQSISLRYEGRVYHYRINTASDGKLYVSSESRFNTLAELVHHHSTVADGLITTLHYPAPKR

[2] = target: T2, Abl SH2 domain Arg36Lys (Mus musculus, UniProt P00520, R152K); assay: HSQC NMR titration ligand-binding assay, Arg36Lys mutant; conditions: 135 mM KCl
T2 sequence (P00520 120-220 R152K): T1 sequence (P00520 120-220 R161Q) with R33K, Q42R

[3] = target: T3, Abl SH2 domain Arg59Gln (Mus musculus, UniProt P00520, R175Q); assay: HSQC NMR titration ligand-binding assay, Arg59Gln mutant; conditions: for Affinity in high salt: 135 mM KCl; for Kd: read-out: Affinity in high salt, 135 mM KCl
T3 sequence (P00520 120-220 R175Q): T1 sequence (P00520 120-220 R161Q) with Q42R, R56Q

[4] = target: T4, Abl SH2 domain (wild type) (Mus musculus, UniProt P00520); assay: HSQC NMR titration ligand-binding assay, wild type Abl SH2 domain; conditions: for Affinity in high salt: 135 mM KCl, HSQC titration, ± standard error
T4 sequence (P00520 120-220): T1 sequence (P00520 120-220 R161Q) with Q42R

| Compound | Kd [1] | Affinity in high salt [2] | Affinity in high salt [3] | Kd [3] | Affinity in high salt [4] | further results |
| --- | --- | --- | --- | --- | --- | --- |
| CCCC(=O)OC[C@H](COP(=O)(O)O[C@@H]1[C@H](O)[C@H](O)[C@@H](OP(=O)(O)O)[C@H](OP(=O)(O)O)[C@H]1O)OC(=O)CCC [diC4-PtdIns(4,5)P2, dibutanoyl (C4) PtdIns(4,5)P2] | 900 ± 60 µM | Not detectable | almost completely disrupted | > 10000 µM |  | Affinity in high salt ([2]; listed as PtdIns(4,5)P2): abolished |
| CCCCCCCC(=O)OC[C@H](COP(=O)(O)O[C@@H]1[C@H](O)[C@H](O)[C@@H](OP(=O)(O)O)[C@H](OP(=O)(O)O)[C@H]1O)OC(=O)CCCCCCC [diC8-PtdIns(4,5)P2, dioctanoyl (C8) PtdIns(4,5)P2] |  |  |  |  |  | stronger affinity of the C8 over C4 form of PtdIns(4,5)P2 ([4]; ratio of affinities): 1.6 fold |
| N[C@@H](Cc1ccc(OP(=O)(O)O)cc1)C(=O)O [pTyr, phosphotyrosine] | 390 ± 13 µM | abolished; also recorded: Not detectable | reduced to millimolar levels | 2500 ± 200 µM |  |  |
| GQSSRV[pS]PSPTTY [BCR pSer354 peptide] |  |  |  |  | Not detectable |  |
| phosphatidic acid [Phosphatidicacid] |  |  |  |  | very weak |  |
| phosphatidylserine |  |  |  |  | Not detectable | Affinity in high salt ([4]; listed as PtdSer): very weak |
